The source of these data is patent US20180353462A1, “[…] AGENTS […] FLAVONOID DERIVATIVES TARGETING KINASES, SIRTUINS AND ONCOGENIC AGENTS FOR THE TREATMENT OF CANCERS” (priority 2015, published 2018).

As a reminder, the IC50 is the point on the concentration scale where inhibition reaches its midpoint. A lower IC50 goes with higher potency.

The structures appear in SMILES notation.

One test deals with T1, SIRT-5 (Homo sapiens, UniProt Q9NXA8).
T1 sequence (Q9NXA8 37-310): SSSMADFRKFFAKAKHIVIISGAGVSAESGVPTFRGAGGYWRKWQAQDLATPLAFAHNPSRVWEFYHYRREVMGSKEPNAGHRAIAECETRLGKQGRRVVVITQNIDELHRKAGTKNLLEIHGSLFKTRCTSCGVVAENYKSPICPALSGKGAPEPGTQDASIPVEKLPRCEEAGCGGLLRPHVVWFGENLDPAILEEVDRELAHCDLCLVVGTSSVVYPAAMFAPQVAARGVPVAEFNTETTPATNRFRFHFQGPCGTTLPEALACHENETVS
In words: Inhibition of sirtuins, SIRT-5. It is filed as biochemical. As to conditions: Table 3 SIRT. From the text:
(§1) Inhibition of Sirtuins, Matrix Metalloproteinase, Bromodomains was Also Confirmed Using Standard Protocols and the Results are Present in Table 2.

The next test has as its target T2, PIP5K1A (Homo sapiens, UniProt Q99755).
T2 construct: T7 phage fusion (most assays) or DNA tag for qPCR (HEK-293-made kinases); made in house
In words: Kinase competition binding assay, PIP5K1A. The following applies: Table 1 kinase panel. How it is done: (§2) Cannabis flavonoids and their analogs were subjected to kinase inhibition assay. The compounds were first screened at a single concentration of 10 μM in the primary assay. […]. To determine the kd or IC50 values, competition binding assays were established, authenticated and executed as described previously. Fabian et al., “A Small Molecule-Kinase Interaction Map For Clinical Kinase Inhibitors.”, Nat Biotechnol, 23(3):329-36, Epub (2005). See also, Karaman et al., “A Quantitative Analysis Of Kinase Inhibitor Selectivity”, Nat. Biotechnol. […] For most assays, kinases were fused to T7 phage strains (Fabian, supra) and for the other assays, kinases were produced in HEK-293 cells after which they were tagged with DNA for quantitative PCR detection. In general, full-length constructs were used for small, single domain kinases, and catalytic domain constructs for large multi-domain kinases. The binding assays utilized streptavidin-coated magnetic beads treated with biotinylated small molecule ligands for 30 minutes at room temperature which generated affinity resins for the kinase assays. The liganded beads were blocked with excess biotin and washed with blocking buffer (SeaBlock (Pierce), 1% BSA, 0.05% Tween 20, 1 mM DTT) to remove unbound ligand and to reduce non-specific phage binding. […] Test compounds were prepared as 40× stocks in 100% DMSO and diluted directly into the assay (Final DMSO concentration=2.5%). All reactions were performed in polypropylene 384-well plates in a final volume of 0.04 ml. […] The beads were then re-suspended in elution buffer (1×PBS, 0.05% Tween 20, 0.5 μM non-biotinylated affinity ligand) and incubated at room temperature with shaking for 30 minutes. The kinase concentration in the eluates was measured by quantitative PCR. An illustration of the kinase interaction process is presented below. Kd/IC50 values were determined using a standard dose response curve using the hill equation. Curves were fitted using a non-linear least square fit with the Levenberg-Marquardt algorithm.
(§3) The compound(s) were screened at 10 μM and results for primary screen binding interactions are reported as ‘% Ctrl’, where lower numbers indicate stronger hits in the matrix.

In a further test the target is T3, BIKE (Homo sapiens, UniProt Q9NSY1).
T3 construct: made in house
T3 sequence (Q9NSY1 whole entry): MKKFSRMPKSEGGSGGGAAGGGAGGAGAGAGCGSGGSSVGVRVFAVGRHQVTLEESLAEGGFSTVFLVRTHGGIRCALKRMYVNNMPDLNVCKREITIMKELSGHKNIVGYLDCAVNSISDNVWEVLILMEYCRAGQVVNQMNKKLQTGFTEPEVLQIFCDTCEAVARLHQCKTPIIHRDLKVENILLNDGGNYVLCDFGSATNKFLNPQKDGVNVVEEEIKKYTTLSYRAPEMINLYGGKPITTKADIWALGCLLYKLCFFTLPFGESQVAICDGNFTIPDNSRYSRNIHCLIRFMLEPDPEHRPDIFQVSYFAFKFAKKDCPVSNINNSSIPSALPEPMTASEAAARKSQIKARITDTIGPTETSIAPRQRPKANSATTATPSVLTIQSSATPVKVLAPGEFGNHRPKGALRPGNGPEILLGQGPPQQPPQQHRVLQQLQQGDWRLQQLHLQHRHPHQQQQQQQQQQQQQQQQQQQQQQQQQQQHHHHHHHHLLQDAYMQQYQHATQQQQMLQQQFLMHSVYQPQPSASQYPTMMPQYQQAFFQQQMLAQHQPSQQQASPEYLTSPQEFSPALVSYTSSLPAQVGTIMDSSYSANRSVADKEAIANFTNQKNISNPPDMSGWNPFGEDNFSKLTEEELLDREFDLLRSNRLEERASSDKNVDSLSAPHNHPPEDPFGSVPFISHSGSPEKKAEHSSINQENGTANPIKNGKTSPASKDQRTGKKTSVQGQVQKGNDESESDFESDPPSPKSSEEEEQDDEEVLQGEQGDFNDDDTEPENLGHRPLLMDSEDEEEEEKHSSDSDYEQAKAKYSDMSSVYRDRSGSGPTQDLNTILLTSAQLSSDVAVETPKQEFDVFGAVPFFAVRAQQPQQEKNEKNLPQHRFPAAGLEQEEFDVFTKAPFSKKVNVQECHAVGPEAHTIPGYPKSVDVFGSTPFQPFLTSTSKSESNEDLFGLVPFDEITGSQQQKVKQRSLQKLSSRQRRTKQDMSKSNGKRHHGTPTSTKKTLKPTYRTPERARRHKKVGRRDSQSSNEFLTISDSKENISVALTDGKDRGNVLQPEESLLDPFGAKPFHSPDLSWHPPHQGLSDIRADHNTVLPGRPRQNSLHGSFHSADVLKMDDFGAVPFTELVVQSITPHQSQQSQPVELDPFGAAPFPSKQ
Description: Kinase competition binding assay, BIKE. As to conditions: Table 1 kinase panel. How it is done: as §2, §3

A further test concerns the target T4, PIK4CB (Homo sapiens, UniProt Q9UBF8).
T4 construct: T7 phage fusion (most assays) or DNA tag for qPCR (HEK-293-made kinases); made in house
Description: Kinase competition binding assay, PIK4CB. The following applies: Table 1 kinase panel. How it is done: as §2, §3

In a further test the target is T5, SIRT-3 (Homo sapiens, UniProt Q9NTG7).
T5 sequence (Q9NTG7 1-399): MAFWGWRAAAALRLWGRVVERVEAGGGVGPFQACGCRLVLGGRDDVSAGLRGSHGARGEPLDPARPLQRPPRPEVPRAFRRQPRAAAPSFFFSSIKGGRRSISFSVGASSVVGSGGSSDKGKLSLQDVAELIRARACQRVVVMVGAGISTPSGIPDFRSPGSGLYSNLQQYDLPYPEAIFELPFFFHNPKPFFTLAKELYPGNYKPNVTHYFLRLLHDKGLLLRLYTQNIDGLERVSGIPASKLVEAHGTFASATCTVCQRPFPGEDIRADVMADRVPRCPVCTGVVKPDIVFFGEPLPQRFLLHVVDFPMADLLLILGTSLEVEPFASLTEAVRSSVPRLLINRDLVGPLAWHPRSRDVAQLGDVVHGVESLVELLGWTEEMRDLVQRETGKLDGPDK
Description: Inhibition of sirtuins, SIRT-3. It counts as biochemical. The following applies: Table 3 SIRT.
Excerpt: as §1

The target in a further test is T6, PIK3CA(1800L) (Homo sapiens, UniProt P42336, I800L).
T6 construct: T7 phage fusion (most assays) or DNA tag for qPCR (HEK-293-made kinases); made in house
T6 sequence (P42336 whole entry I800L, the tested form may be a part): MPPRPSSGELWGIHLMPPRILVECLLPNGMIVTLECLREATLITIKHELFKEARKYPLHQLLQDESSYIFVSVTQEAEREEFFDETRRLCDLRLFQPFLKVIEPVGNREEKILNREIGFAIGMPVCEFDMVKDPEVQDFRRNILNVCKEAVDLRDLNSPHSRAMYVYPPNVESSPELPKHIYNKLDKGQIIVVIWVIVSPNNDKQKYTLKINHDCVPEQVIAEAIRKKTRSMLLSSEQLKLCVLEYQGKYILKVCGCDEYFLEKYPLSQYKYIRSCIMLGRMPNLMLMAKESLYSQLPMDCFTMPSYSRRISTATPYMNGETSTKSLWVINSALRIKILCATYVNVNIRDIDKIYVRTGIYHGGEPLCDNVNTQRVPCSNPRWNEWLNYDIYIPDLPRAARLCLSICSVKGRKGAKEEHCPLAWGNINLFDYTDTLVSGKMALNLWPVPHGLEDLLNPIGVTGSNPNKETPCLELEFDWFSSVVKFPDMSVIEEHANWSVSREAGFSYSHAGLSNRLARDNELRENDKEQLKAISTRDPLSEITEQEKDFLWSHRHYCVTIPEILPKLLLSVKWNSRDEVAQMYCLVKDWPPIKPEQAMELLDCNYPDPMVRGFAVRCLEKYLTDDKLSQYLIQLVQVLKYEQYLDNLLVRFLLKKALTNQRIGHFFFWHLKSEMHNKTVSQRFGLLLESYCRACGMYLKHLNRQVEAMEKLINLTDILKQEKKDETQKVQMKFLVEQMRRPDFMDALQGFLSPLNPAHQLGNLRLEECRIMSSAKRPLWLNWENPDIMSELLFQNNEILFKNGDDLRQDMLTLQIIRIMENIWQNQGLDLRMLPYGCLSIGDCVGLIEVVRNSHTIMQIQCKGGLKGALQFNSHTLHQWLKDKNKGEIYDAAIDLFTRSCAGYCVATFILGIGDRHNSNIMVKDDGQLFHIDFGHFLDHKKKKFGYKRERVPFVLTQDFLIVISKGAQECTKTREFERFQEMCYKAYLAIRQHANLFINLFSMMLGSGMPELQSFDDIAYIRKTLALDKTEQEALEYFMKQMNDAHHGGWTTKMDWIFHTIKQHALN
In words: Kinase competition binding assay, PIK3CA(1800L). As to conditions: Table 1 kinase panel. On the procedure: as §2, §3

A further test has as its target T7, FLT3(D835V) (Homo sapiens, UniProt P36888, D835V).
T7 construct: made in house
T7 sequence (P36888 27-993 D835V): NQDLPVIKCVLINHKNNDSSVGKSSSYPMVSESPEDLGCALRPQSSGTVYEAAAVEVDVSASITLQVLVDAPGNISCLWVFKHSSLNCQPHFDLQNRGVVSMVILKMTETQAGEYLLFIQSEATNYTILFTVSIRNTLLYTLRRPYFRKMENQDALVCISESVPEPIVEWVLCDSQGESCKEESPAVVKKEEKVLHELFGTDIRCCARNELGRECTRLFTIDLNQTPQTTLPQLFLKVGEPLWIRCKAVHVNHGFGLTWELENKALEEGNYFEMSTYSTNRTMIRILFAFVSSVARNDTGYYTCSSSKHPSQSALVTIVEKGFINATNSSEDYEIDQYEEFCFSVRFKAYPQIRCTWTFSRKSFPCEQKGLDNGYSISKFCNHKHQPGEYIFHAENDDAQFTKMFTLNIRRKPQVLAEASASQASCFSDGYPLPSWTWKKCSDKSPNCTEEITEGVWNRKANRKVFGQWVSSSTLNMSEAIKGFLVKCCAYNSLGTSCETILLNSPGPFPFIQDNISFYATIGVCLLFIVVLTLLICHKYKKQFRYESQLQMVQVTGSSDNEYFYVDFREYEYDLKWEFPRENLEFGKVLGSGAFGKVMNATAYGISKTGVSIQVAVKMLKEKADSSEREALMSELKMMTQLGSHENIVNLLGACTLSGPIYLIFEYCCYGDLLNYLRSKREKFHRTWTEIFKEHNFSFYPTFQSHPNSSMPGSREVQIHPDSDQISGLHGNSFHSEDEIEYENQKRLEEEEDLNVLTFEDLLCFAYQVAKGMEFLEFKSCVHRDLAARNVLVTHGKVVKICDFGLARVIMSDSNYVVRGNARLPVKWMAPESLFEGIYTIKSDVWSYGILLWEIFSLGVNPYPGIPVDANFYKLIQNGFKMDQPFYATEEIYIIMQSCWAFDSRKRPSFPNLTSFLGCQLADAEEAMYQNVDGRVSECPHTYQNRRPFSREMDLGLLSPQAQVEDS
Description: Kinase competition binding assay, FLT3(D835V). As to conditions: Table 1 kinase panel. How it is done:
as §2, §3

T4 sequence (Q9UBF8 whole entry, the tested form may be a part): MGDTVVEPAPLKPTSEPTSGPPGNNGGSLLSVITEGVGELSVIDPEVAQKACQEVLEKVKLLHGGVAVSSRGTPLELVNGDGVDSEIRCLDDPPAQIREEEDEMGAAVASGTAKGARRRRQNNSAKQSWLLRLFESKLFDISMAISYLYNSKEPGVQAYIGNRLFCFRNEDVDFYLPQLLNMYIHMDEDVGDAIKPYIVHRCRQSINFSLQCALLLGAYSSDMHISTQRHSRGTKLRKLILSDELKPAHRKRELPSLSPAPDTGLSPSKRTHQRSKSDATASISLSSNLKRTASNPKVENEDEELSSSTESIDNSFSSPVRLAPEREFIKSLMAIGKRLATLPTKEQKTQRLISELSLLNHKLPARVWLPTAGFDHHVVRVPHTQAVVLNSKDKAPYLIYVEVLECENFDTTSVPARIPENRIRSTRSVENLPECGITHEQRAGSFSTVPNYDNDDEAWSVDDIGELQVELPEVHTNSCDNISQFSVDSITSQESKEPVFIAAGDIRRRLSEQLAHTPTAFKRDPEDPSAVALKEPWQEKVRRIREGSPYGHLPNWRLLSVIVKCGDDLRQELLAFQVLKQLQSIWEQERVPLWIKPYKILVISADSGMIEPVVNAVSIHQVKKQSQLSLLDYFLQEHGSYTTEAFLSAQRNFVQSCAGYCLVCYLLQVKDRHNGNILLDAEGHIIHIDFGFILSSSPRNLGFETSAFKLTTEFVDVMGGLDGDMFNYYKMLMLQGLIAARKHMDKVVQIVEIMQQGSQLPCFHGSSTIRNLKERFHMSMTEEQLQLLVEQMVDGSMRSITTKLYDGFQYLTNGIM
T2 sequence (Q99755 whole entry, the tested form may be a part): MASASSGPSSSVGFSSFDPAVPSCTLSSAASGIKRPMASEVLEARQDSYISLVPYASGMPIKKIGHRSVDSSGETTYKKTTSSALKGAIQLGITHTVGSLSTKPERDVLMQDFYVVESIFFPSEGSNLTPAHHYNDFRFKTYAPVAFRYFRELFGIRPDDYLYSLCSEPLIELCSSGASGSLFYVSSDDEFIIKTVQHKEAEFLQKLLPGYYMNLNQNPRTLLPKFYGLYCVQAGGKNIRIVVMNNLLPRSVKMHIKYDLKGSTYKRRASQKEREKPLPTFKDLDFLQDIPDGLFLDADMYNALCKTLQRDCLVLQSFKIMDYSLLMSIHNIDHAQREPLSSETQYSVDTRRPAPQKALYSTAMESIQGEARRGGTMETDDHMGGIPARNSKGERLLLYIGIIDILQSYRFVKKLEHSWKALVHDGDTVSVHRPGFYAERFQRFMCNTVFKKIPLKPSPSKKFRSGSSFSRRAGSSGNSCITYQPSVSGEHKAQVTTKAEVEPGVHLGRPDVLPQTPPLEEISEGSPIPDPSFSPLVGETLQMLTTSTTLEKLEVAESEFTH

As for `COc1cc(-c2cc(=O)c3c(O)c(C/C=C(\C)CCC=C(C)C)c(O)cc3o2)ccc1O` [FBL-03A], the IC50 was 523 µM against SIRT-5; more than 20000 nM on PIP5K1A; more than 20000 nM at BIKE; 670 nM at PIK4CB; 94.9 µM against SIRT-3; more than 20000 nM at PIK3CA(1800L). For the same compound, on FLT3(D835V), the IC50 was 220 nM.
In the case of `COc1ccc(-c2cc(=O)c3c(O)c(C/C=C(\C)CCC=C(C)C)c(O)cc3o2)cc1OC` [FBL-03D], the IC50 at PIP5K1A, at BIKE, at PIK4CB, on PIK3CA(1800L) and on FLT3(D835V) was more than 30000 nM throughout.
Consider `COc1cc(-c2cc(=O)c3c(O)c(CC=C(C)C)c(O)cc3o2)ccc1O` [FBL-03B], for which the IC50 at SIRT-5 is 104 µM; on PIP5K1A, more than 10000 nM; on BIKE, more than 20000 nM; against SIRT-3, 77 µM; on FLT3(D835V), less than 1000 nM.
Take `COc1cc(-c2cc(=O)c3c(O)cc(O)c(C/C=C(\C)CCC=C(C)C)c3o2)ccc1O` [FBL-03C]: the IC50 against SIRT-5 is 132 µM; at PIP5K1A, 360 nM; at BIKE, 21 nM; at PIK4CB, more than 1000 nM; against SIRT-3 it was 65.4 µM; at PIK3CA(1800L), 780 nM. The compound further had an IC50 on FLT3(D835V) of 190 nM.
Consider `COc1cc(-c2cc(=O)c3c(O)cc(O)c(CC=C(C)C)c3o2)ccc1O` [FBL-03G], for which the IC50 on SIRT-5 is 974 µM; on PIP5K1A, more than 20000 nM; at BIKE it was more than 20000 nM; on PIK4CB it was more than 20000 nM; against SIRT-3, 66.4 µM; on PIK3CA(1800L), more than 20000 nM. At FLT3(D835V), the IC50 was less than 1000 nM.
